# Columns and labels:
# [1] = Blood pressure (MAP) by tailcuff; assay type: in vivo, rat; settings: 12 days subcutaneous osmotic pump, tailcuff just prior to euthanasia
# Experimental: Animals and tissues. Twelve- to 16-week old male Sprague-Dawley rats, spontaneously hypertensive rats (SHR), and Wistar-Kyoto rats ([…]) (Charles River Laboratories, St. Constant, Canada) were studied. All animal use procedures were in accordance with institutional guidelines and approved by the institutional Animal Care and Use Committee at the University of Vermont. Rats were euthanized with an injection of pentobarbitone (150 mg/kg ip) followed by exsanguination. The brain was removed and cerebellar and cerebral arteries (between 125 and 225 μm diameter) were dissected free in ice-cold MOPS-buffered saline solution containing (in mM): 3 MOPS, 145 NaCl, 5 KCl, 1 MgSO4.7H2O, 2.5 CaCl2, 1 KH2PO4, 0.02 EGTA, 2 pyruvate, 5 glucose and 1% bovine serum albumin (BSA) at pH 7.4. Angiotensin II or a control vehicle (physiological saline solution) was administered for 12 days using a subcutaneous osmotic pump. Blood pressures (MAP) were measured by tailcuff just prior to euthanasia and averaged 93±2 mm Hg in control rats and 146±5 mm Hg in Angiotensin II treated rats.
# TRPC3 = assay: Western analysis of TRPC3 protein expression in arteries; assay type: cell-based, rat; settings: Angiotensin-II hypertensive rats; cerebral and mesenteric arteries
# Experimental: (§1) Western Analysis. Arterial segments were homogenized in lysis buffer (5 minutes, 4° C.) containing (in mM): 40 CAPS, 1 DL-Dithiothreitol (DTT), 10 EDTA, 15 MgCl2, 115 NaCl, 1 NaOrthovanadate, 1 NaF, 2.5 Urea, and 0.25% deoxychlorate, 10% glycerol, 1% NP-40, 0.2% SDS, and 1:50 mammalian protease inhibitor cocktail (Sigma, St. Louis, Mo., USA). Equal amounts of sample protein were separated on a 10% polyacrylamide gel and transferred to a nitrocellulose membrane. The membranes were exposed to a TRPC3 or TRPC6 polyclonal antibody (anti-rabbit 1:200 dilution, Alomone Labs, Jerusalem, Israel) and a […] (GAPDH) monoclonal antibody (anti-mouse, 1:1000 dilution, Chemicon Labs, Temecula, Calif., USA). Alexa-Fluor 680® goat anti-rabbit (Molecular Probes, Eugene, Oreg., USA) and IRDyeTM800 anti-mouse (Rockland Immunochemicals, Gilbertsville, Pa., USA) were used to fluorescently label the TRPC3 and GAPDH antibodies respectively. The density of signals specific for the TRPC3 and GAPDH bands in a given lane on a membrane were measured after scanning the membrane with an Odyssey® infared imaging system (Li-COR Biosciences, Lincoln, Nebr., USA). Quantified amounts were normalized to a total protein amount lane on the polyacrylamide gel.
# Oligodeoxynucleotide Sequences and Reverse Permeabilization. TRPC6 sense and antisense oligodeoxynucleotides (ODN's) were designed as previously described (Welsh et al 2002 Circ Res 90, 248-250) and were as follows: sense, 5′-[…]-3′ (SEQ ID: 3) and 5′-GCACACGCAGCCTCTTCAC-3′ (SEQ ID: 4) antisense, 5′-[…]-3′ (SEQ ID: 5) and 5′-[…]-3′ (SEQ ID: 6). TRPC3 sense and antisense ODN's were designed based on the rat TRPC3 gene (Ohki et al 2000 J Biol Chem 275: 39055-39060) and are as follows: sense, 5′-[…]-3′ (SEQ ID: 7) and 5′-[…]-3′ (SEQ ID: 8); anti-sense, 5′-[…]-3′ (SEQ ID: 9) and 5′-[…]-3′ (SEQ ID: 10). The last five bases on the 5′ and 3′ end were phosphorothioated in order to limit ODN degradation. […]
# TRPC6 = assay: Western analysis of TRPC6 protein expression in arteries; assay type: cell-based, rat; settings: Angiotensin-II hypertensive rats; cerebral arteries
# Experimental: as §1
# Oligodeoxynucleotide Sequences and Reverse Permeabilization. […]
substance,measurement,setting,value
"Angiotensin II (DRVYIHPF; Angiotensin-2; UniProt P01015 25-32, looked up)",Blood pressure (MAP),[1],146±5 mm Hg
same,expression of TRPC3 versus normotensive controls,TRPC3,trends towards increased expression
same,expression of TRPC6 versus normotensive controls,TRPC6,increased expression

# — patent publication US20060217340A1, “Methods and products for treating hypertension by modulation of TRPC3 channel activity” (University of Vermont and State Agricultural College, priority 2005, published 2006)
